Results published in the supplement of paper PMC11616607.

Columns and labels:
Assay in all cases: drug sensitivity score (DSS) from 5-point dose-response viability curve (DSS (area-under-curve based score)); higher = more sensitive (stronger growth inhibition or killing); extreme values may be limits of the assay
Details in all cases: exposure time: 72 h; concentration range: 5 concentrations over 10,000-fold range
CAOV3 = test system: CAOV3
How it was run: (§1)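 Ovarian cancer and normal ovarian cell lines were tested in 384-well plates, with drugs dispensed acoustically (Echo 550) in DMSO or water at five concentrations covering a 10,000-fold range. After 1,500 cells per well were added, plates were incubated for 3 days at 37°C and 5% CO2, and viability was read by CellTiter-Glo luminescence on a PHERAstar FS. Breeze software gave a drug sensitivity score for each cell line and drug, where a higher score means greater sensitivity. A value of zero means no response.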

COV318 = test system: COV318
How it was run: as §1

COV362 = test system: COV362
How it was run: as §1

HOSE1C = test system: HOSE1C
How it was run: as §1

HOSE2C = test system: HOSE2C
How it was run: as §1

JHOS2 = test system: JHOS2
How it was run: as §1

Kuramochi = test system: Kuramochi
How it was run: as §1

OV90 = test system: OV90
How it was run: as §1

OVCAR4 = test system: OVCAR4
How it was run: as §1

OVCAR5 = test system: OVCAR5
How it was run: as §1

OVCAR8 = test system: OVCAR8
How it was run: as §1

Ovsaho = test system: Ovsaho
How it was run: as §1

Compound: Cc1nc(=O)c2cc(CN(C)c3ccc(C(=O)N[C@@H](CCC(=O)O)C(=O)O)s3)ccc2[nH]1 [Raltitrexed]
- drug sensitivity score (CAOV3): 10.7
- drug sensitivity score (COV318): 3
- drug sensitivity score (COV362): 6
- drug sensitivity score (HOSE1C): 21.8
- drug sensitivity score (HOSE2C): 20.3
- drug sensitivity score (JHOS2): 4.2
- drug sensitivity score (Kuramochi): 9.1
- drug sensitivity score (OV90): 6.1
- drug sensitivity score (OVCAR4): 6.4
- drug sensitivity score (OVCAR5): 6.3
- drug sensitivity score (OVCAR8): 18.4
- drug sensitivity score (Ovsaho): 5.7

Compound: O=C(Nc1ccc2[nH]nc(-c3ccncc3)c2c1)[C@@H]1CCN(CC(=O)N2CCN(c3ccc(-c4ncccn4)cc3)CC2)C1
- drug sensitivity score (CAOV3): 12.2
- drug sensitivity score (COV318): 0
- drug sensitivity score (COV362): 4.9
- drug sensitivity score (HOSE1C): 0.2
- drug sensitivity score (HOSE2C): 1.1
- drug sensitivity score (JHOS2): 8.4
- drug sensitivity score (Kuramochi): 13.2
- drug sensitivity score (OV90): 23.5
- drug sensitivity score (OVCAR4): 1.7
- drug sensitivity score (OVCAR5): 13.4
- drug sensitivity score (OVCAR8): 6.7
- drug sensitivity score (Ovsaho): 14.1

Compound: O=C1CCC(N2C(=O)c3ccccc3C2=O)C(=O)N1 (configuration not stated) [Thalidomide]
- drug sensitivity score (CAOV3): 0
- drug sensitivity score (COV318): 0
- drug sensitivity score (COV362): 0
- drug sensitivity score (HOSE1C): 0
- drug sensitivity score (HOSE2C): 0
- drug sensitivity score (JHOS2): 0
- drug sensitivity score (Kuramochi): 0
- drug sensitivity score (OV90): 0
- drug sensitivity score (OVCAR4): 0
- drug sensitivity score (OVCAR5): 0
- drug sensitivity score (OVCAR8): 0
- drug sensitivity score (Ovsaho): 0

Compound: O=C(Nc1nc2cccc(-c3ccc(CN4CCS(=O)(=O)CC4)cc3)n2n1)C1CC1 [Filgotinib]
- drug sensitivity score (CAOV3): 2.3
- drug sensitivity score (COV318): 3.4
- drug sensitivity score (COV362): 0.2
- drug sensitivity score (HOSE1C): 0.1
- drug sensitivity score (HOSE2C): 0
- drug sensitivity score (JHOS2): 1.1
- drug sensitivity score (Kuramochi): 5.1
- drug sensitivity score (OV90): 3.2
- drug sensitivity score (OVCAR4): 2.6
- drug sensitivity score (OVCAR5): 1.8
- drug sensitivity score (OVCAR8): 2.5
- drug sensitivity score (Ovsaho): 2.5

Compound: CC(C)c1cc(-c2n[nH]c(=O)n2-c2ccc3c(ccn3C)c2)c(O)cc1O [Ganetespib]
- drug sensitivity score (CAOV3): 16.2
- drug sensitivity score (COV318): 10.3
- drug sensitivity score (COV362): 12.7
- drug sensitivity score (HOSE1C): 22.9
- drug sensitivity score (HOSE2C): 26.1
- drug sensitivity score (JHOS2): 18
- drug sensitivity score (Kuramochi): 11.9
- drug sensitivity score (OV90): 15.3
- drug sensitivity score (OVCAR4): 11.3
- drug sensitivity score (OVCAR5): 13.6
- drug sensitivity score (OVCAR8): 17
- drug sensitivity score (Ovsaho): 5

Compound: COc1cc2c(NC3CCN(C(C)C)CC3)nc(N3CCC(F)(F)CC3)nc2cc1OCCCN1CCCC1 [UNC0642]
- drug sensitivity score (CAOV3): 0.2
- drug sensitivity score (COV318): 0
- drug sensitivity score (COV362): 0.9
- drug sensitivity score (HOSE1C): 0
- drug sensitivity score (HOSE2C): 0
- drug sensitivity score (JHOS2): 0
- drug sensitivity score (Kuramochi): 0
- drug sensitivity score (OV90): 4.4
- drug sensitivity score (OVCAR4): 0
- drug sensitivity score (OVCAR5): 1
- drug sensitivity score (OVCAR8): 0.7
- drug sensitivity score (Ovsaho): 0

Compound: CC1(COc2ccc3c(c2)ncn3-c2ccc3cccc(N4CCC(N)CC4)c3n2)COC1 [Crenolanib]
- drug sensitivity score (CAOV3): 10
- drug sensitivity score (COV318): 5.4
- drug sensitivity score (COV362): 6.8
- drug sensitivity score (HOSE1C): 4.8
- drug sensitivity score (HOSE2C): 2.8
- drug sensitivity score (JHOS2): 7.9
- drug sensitivity score (Kuramochi): 4
- drug sensitivity score (OV90): 6
- drug sensitivity score (OVCAR4): 2.9
- drug sensitivity score (OVCAR5): 4.9
- drug sensitivity score (OVCAR8): 6.9
- drug sensitivity score (Ovsaho): 4.4

Compound: C#Cc1cccc(Nc2ncnc3cc4c(cc23)OCCOCCOCCO4)c1 [Icotinib]
- drug sensitivity score (CAOV3): 5.7
- drug sensitivity score (COV318): 0.2
- drug sensitivity score (COV362): 0
- drug sensitivity score (HOSE1C): 0
- drug sensitivity score (HOSE2C): 0
- drug sensitivity score (JHOS2): 0.4
- drug sensitivity score (Kuramochi): 0.2
- drug sensitivity score (OV90): 0
- drug sensitivity score (OVCAR4): 1.7
- drug sensitivity score (OVCAR5): 4.3
- drug sensitivity score (OVCAR8): 0
- drug sensitivity score (Ovsaho): 1.1

Compound: COc1cc(Nc2ncc(F)c(Nc3ccc4c(n3)N(COP(=O)(O)O)C(=O)C(C)(C)O4)n2)cc(OC)c1OC [Fostamatinib]
- drug sensitivity score (CAOV3): 0
- drug sensitivity score (COV318): 1.5
- drug sensitivity score (COV362): 0.8
- drug sensitivity score (HOSE1C): 2
- drug sensitivity score (HOSE2C): 8.4
- drug sensitivity score (JHOS2): 0.8
- drug sensitivity score (Kuramochi): 2.4
- drug sensitivity score (OV90): 2.9
- drug sensitivity score (OVCAR4): 2.9
- drug sensitivity score (OVCAR5): 3.7
- drug sensitivity score (OVCAR8): 0.3
- drug sensitivity score (Ovsaho): 2.4

Compound: CC1CCC(n2c3cnccc3c3cnc(Nc4ccc5c(n4)CCN(C(=O)CO)C5)nc32)CC1 (configuration not stated) [AMG-925]
- drug sensitivity score (CAOV3): 0
- drug sensitivity score (COV318): 0
- drug sensitivity score (COV362): 0
- drug sensitivity score (HOSE1C): 0
- drug sensitivity score (HOSE2C): 0
- drug sensitivity score (JHOS2): 0.5
- drug sensitivity score (Kuramochi): 0.1
- drug sensitivity score (OV90): 0
- drug sensitivity score (OVCAR4): 0
- drug sensitivity score (OVCAR5): 2.5
- drug sensitivity score (OVCAR8): 0
- drug sensitivity score (Ovsaho): 0.1

Compound: CCn1c(=O)c(-c2ccc(Cl)cc2Cl)cc2cnc(Nc3ccc(N4CCNCC4)c(F)c3)nc21 [FRAX486]
- drug sensitivity score (CAOV3): 4.2
- drug sensitivity score (COV318): 4.2
- drug sensitivity score (COV362): 6.3
- drug sensitivity score (HOSE1C): 7.6
- drug sensitivity score (HOSE2C): 12.1
- drug sensitivity score (JHOS2): 3.7
- drug sensitivity score (Kuramochi): 4.3
- drug sensitivity score (OV90): 5.5
- drug sensitivity score (OVCAR4): 5.1
- drug sensitivity score (OVCAR5): 4.9
- drug sensitivity score (OVCAR8): 3.8
- drug sensitivity score (Ovsaho): 7

Compound: CC(C)N(CCCNC(=O)Nc1ccc(C(C)(C)C)cc1)C[C@H]1O[C@@H](n2cc(Br)c3c(N)ncnc32)[C@H](O)[C@@H]1O [SGC0946]
- drug sensitivity score (CAOV3): 0
- drug sensitivity score (COV318): 0
- drug sensitivity score (COV362): 3.4
- drug sensitivity score (HOSE1C): 0
- drug sensitivity score (HOSE2C): 0
- drug sensitivity score (JHOS2): 0
- drug sensitivity score (Kuramochi): 0
- drug sensitivity score (OV90): 2.3
- drug sensitivity score (OVCAR4): 0.1
- drug sensitivity score (OVCAR5): 1.7
- drug sensitivity score (OVCAR8): 0
- drug sensitivity score (Ovsaho): 0.1

Compound: COc1ccc(CCc2nc3cc(-c4c(C)noc4C)ccc3n2C[C@H](C)N2CCOCC2)cc1Cl [SGC-CBP30]
- drug sensitivity score (CAOV3): 3.7
- drug sensitivity score (COV318): 3.1
- drug sensitivity score (COV362): 0.2
- drug sensitivity score (HOSE1C): 11
- drug sensitivity score (HOSE2C): 6.1
- drug sensitivity score (JHOS2): 1.7
- drug sensitivity score (Kuramochi): 6.6
- drug sensitivity score (OV90): 3.4
- drug sensitivity score (OVCAR4): 2
- drug sensitivity score (OVCAR5): 2.9
- drug sensitivity score (OVCAR8): 5.7
- drug sensitivity score (Ovsaho): 6.6

Compound: O=C1CN2Cc3c(ccc(Cl)c3Cl)N=C2N1 [Anagrelide]
- drug sensitivity score (CAOV3): 0
- drug sensitivity score (COV318): 0
- drug sensitivity score (COV362): 0
- drug sensitivity score (HOSE1C): 0
- drug sensitivity score (HOSE2C): 0
- drug sensitivity score (JHOS2): 0
- drug sensitivity score (Kuramochi): 0
- drug sensitivity score (OV90): 0
- drug sensitivity score (OVCAR4): 0
- drug sensitivity score (OVCAR5): 0
- drug sensitivity score (OVCAR8): 0
- drug sensitivity score (Ovsaho): 0

Compound: CCOC(=O)CCNc1cc(N2CCc3ccccc3CC2)nc(-c2ccccn2)n1 [GSK-J4]
- drug sensitivity score (CAOV3): 1.6
- drug sensitivity score (COV318): 6.9
- drug sensitivity score (COV362): 0
- drug sensitivity score (HOSE1C): 2.5
- drug sensitivity score (HOSE2C): 0.8
- drug sensitivity score (JHOS2): 0
- drug sensitivity score (Kuramochi): 9
- drug sensitivity score (OV90): 4.6
- drug sensitivity score (OVCAR4): 2.9
- drug sensitivity score (OVCAR5): 0.6
- drug sensitivity score (OVCAR8): 1.5
- drug sensitivity score (Ovsaho): 1.9

Compound: Nc1ccccc1NC(=O)c1ccc(CNC(=O)OCc2cccnc2)cc1 [Entinostat]
- drug sensitivity score (CAOV3): 5.5
- drug sensitivity score (COV318): 4.3
- drug sensitivity score (COV362): 0
- drug sensitivity score (HOSE1C): 17.3
- drug sensitivity score (HOSE2C): 11.8
- drug sensitivity score (JHOS2): 4.7
- drug sensitivity score (Kuramochi): 3.2
- drug sensitivity score (OV90): 7.4
- drug sensitivity score (OVCAR4): 4.3
- drug sensitivity score (OVCAR5): 9.9
- drug sensitivity score (OVCAR8): 9.3
- drug sensitivity score (Ovsaho): 2.4
